# Where a name gives a salt, the structure may show the parent alone.
# Key:
# Sco-induced amnesia rats [1] = test: Water-maze learning, Sco-induced memory impairment; format: in vivo, Sprague-Dawley rats; settings: Sco 1.5 mg/kg/d; BMX or SAHA 5 mg/kg/d i.p.
# Method: SAHA was supplied by NatureWise Biotech and Medicals Corporation (Taipei, Taiwan). […] (St. Louis, MO, USA). The BMX and SAHA stock (100 mg/mL) was dissolved in DMSO and diluted with saline to a final concentration of 0.5 mg/mL (in 0.5% DMSO/saline). […] SD rats were randomly divided into 3 groups. For the naïve animal experiments, the BMX-injected or SAHA-injected groups were injected with BMX (5 mg/kg/d) or SAHA (5 mg/kg/d) intraperitoneally 7 d prior to behavioral experiments and during the experimentation. The control group received the 0.5% DMSO/saline injection. The injection volume was 10 μL/g of body weight. The injections were performed once per day. For the amnesia experiment, the protocol was adopted from previous studies with modifications. […] The control group received the 0.5% DMSO/saline injection. The injection volume was 10 μL/g of body weight. […] The method was adopted from that of a previous study with modifications. A plastic circular pool 2.0 m in diameter and 0.6 m in height was filled with water (25 ± 2°C) to a depth of 20 cm. A circular platform (8 cm in diameter) was placed at a specific location from the edge of the pool and submerged 2-3 cm below the water surface. Water was made cloudy by adding toxic-free dye. Distinctive visual cues were set on the wall. For spatial learning, animals were subjected to 3 trials per day, with one trial early in the morning, one trial at noon, and another in the late afternoon. The training procedure lasted 4 days, and a total of 12 trials were given. This procedure was adopted because spaced training is a better paradigm to facilitate memory consolidation. For these trials, the rats were positioned at different starting points spaced equally around the perimeter of the pool in random order. They had 120 s to find the hidden platform. If a rat could not find the platform, it was guided to the platform and was allowed to remain there for 20 s. The time each animal took to reach the platform was recorded as the escape latency. A probe trial of 120 s was given on day 5 to test their memory retention. The rats were placed in the pool with the platform removed, and the time they spent in each quadrant (Quadrants 1, 2, 3, and 4) was recorded. Quadrant 4 is the target quadrant. For the trained and swimming control experiments, rats in the trained group were subjected to the regular water maze learning procedure. At the end of the experiment, the rats were subjected to visible platform learning. For visible platform learning, a flag was mounted on the platform, and the platform was raised 2.5 cm above the surface of the water. In addition, the dye had not been added, so that the animals could see the location of the platform from the water. […]
# Sco-induced amnesia rats [2] = test: Novel object recognition, Sco-induced memory impairment; format: in vivo, Sprague-Dawley rats; settings: Sco 1.5 mg/kg/d; BMX or SAHA 5 mg/kg/d i.p.; 8 h
# Method: SAHA was supplied by NatureWise Biotech and Medicals Corporation (Taipei, Taiwan). […] (St. Louis, MO, USA). The BMX and SAHA stock (100 mg/mL) was dissolved in DMSO and diluted with saline to a final concentration of 0.5 mg/mL (in 0.5% DMSO/saline). […] SD rats were randomly divided into 3 groups. For the naïve animal experiments, the BMX-injected or SAHA-injected groups were injected with BMX (5 mg/kg/d) or SAHA (5 mg/kg/d) intraperitoneally 7 d prior to behavioral experiments and during the experimentation. The control group received the 0.5% DMSO/saline injection. The injection volume was 10 μL/g of body weight. The injections were performed once per day. For the amnesia experiment, the protocol was adopted from previous studies with modifications. […] The control group received the 0.5% DMSO/saline injection. The injection volume was 10 μL/g of body weight. […] The method used was adopted from that of a previous study with modifications. During familiarization, rats were allowed to explore 2 identical objects in an open field box (90 × 70 × 60 cm) for 5 min. The criteria used for exploration were a distance less than 1.5 cm between the rat and the object or direct contact with the object. […] The time that each rat spent exploring the 2 objects during a 5 min period was recorded. […]
structure (smiles),measurement,setting,value
"CN1[C@@H]2C[C@@H](OC(=O)[C@H](CO)c3ccccc3)C[C@H]1[C@@H]1O[C@@H]12 [Sco, Scopolamine hydrochloride]",escape latency in finding the hidden platform,Sco-induced amnesia rats [1],showed longer escape latency
same,"probe trial, time spent in target quadrant",Sco-induced amnesia rats [1],spent less time in the quadrant where the platform had been placed
same,exploratory preference for the novel object (NO),Sco-induced amnesia rats [2],showed no exploratory preference for the NO
